Literature values as cited in patent US20150313913A1, “POSITIVE ALLOSTERIC MODULATORS OF THE GABA-A RECEPTOR IN THE TREATMENT OF AUTISM” (UNIVERSITY OF WASHINGTON THROUGH ITS CENTER FOR …, priority 2013, published 2015).
Like-named read-outs stand apart in the source and are kept apart here.

Key:
GABA-A receptor = details: cited from earlier work; for Effect at GABA-A receptor: Table 1, exemplary benzodiazepines
[1] = cited from earlier work; for Dose in humans for anti-anxiety, anti-convulsive, or sedative effects (dose range, typical or average dose): Table 1, values not marked *
[2] = Table 4, exemplary non-BDZ GABA-A enhancers

CNC1=Nc2ccc(Cl)cc2C(c2ccccc2)=[N+]([O-])C1 [Chlordiazepoxide]
Effect at GABA-A receptor (GABA-A receptor): Agonist Long- acting | Dose in humans for anti-anxiety, anti-convulsive, or sedative effects: equivalent dose to 10 mg diazepam ([1]; Table 1, values marked *): 25 mg

Cc1nnc2n1-c1ccc(Br)cc1C(c1ccccn1)=NC2 [Pyrazolam]
Effect at GABA-A receptor (GABA-A receptor): Agonist | Dose in humans for anti-anxiety, anti-convulsive, or sedative effects: equivalent dose to 10 mg diazepam ([1]; Table 1, values marked *): 1 mg

CN1CCN(/C=C2\N=C3CN=C(c4ccccc4Cl)c4cc([N+](=O)[O-])ccc4N3C2=O)CC1 [Loprazolam]
Effect at GABA-A receptor (GABA-A receptor): Agonist | Dose in humans for anti-anxiety, anti-convulsive, or sedative effects: equivalent dose to 10 mg diazepam ([1]; Table 1, values marked *): 2 mg | Dose in humans for anti-anxiety, anti-convulsive, or sedative effects (dose range, typical or average dose) [1]: 1 to 2 mg

CN1C(=O)CN=C(c2ccccc2F)c2cc([N+](=O)[O-])ccc21 [Flunitrazepam]
Effect at GABA-A receptor (GABA-A receptor): Agonist | Dose in humans for anti-anxiety, anti-convulsive, or sedative effects: equivalent dose to 10 mg diazepam ([1]; Table 1, values marked *): 1 mg

Cc1nnc2n1-c1ccc(Cl)cc1C(c1ccccc1)=NC2 [Alprazolam]
Effect at GABA-A receptor (GABA-A receptor): Full agonist | Dose in humans for anti-anxiety, anti-convulsive, or sedative effects (dose range, typical or average dose) [1]: dose range of 0.5 to 3.0 mg

O=C1CN=C(c2ccccc2F)c2cc(Cl)ccc2N1CC1CC1 [Flutoprazepam]
Effect at GABA-A receptor (GABA-A receptor): Agonist | Dose in humans for anti-anxiety, anti-convulsive, or sedative effects: equivalent dose to 10 mg diazepam ([1]; Table 1, values marked *): 2 to 3 mg

CCN(CC)CCN1C(=O)CN=C(c2ccccc2F)c2cc(Cl)ccc21 [Flurazepam]
Effect at GABA-A receptor (GABA-A receptor): Partial agonist | Dose in humans for anti-anxiety, anti-convulsive, or sedative effects: equivalent dose to 10 mg diazepam ([1]; Table 1, values marked *): 15 to 30 mg

C#CCN1C(=O)CN=C(c2ccccc2)c2cc(Cl)ccc21 [Pinazepam]
Effect at GABA-A receptor (GABA-A receptor): Agonist | Dose in humans for anti-anxiety, anti-convulsive, or sedative effects: equivalent dose to 10 mg diazepam ([1]; Table 1, values marked *): 20 mg

CCOC(=O)C1N=C(c2ccccc2F)c2cc(Cl)ccc2NC1=O (stereo not drawn) [Ethyl loflazepate]
Effect at GABA-A receptor (GABA-A receptor): Agonist (Prodrug) | Dose in humans for anti-anxiety, anti-convulsive, or sedative effects: equivalent dose to 10 mg diazepam ([1]; Table 1, values marked *): 2 mg

CN1C(=O)CN=C(c2ccccc2)c2cc(Cl)ccc21 [Diazepam]
Effect at GABA-A receptor (GABA-A receptor): Agonist Long- acting | dose typically administered to achieve an anxiolytic or anti-convulsive effect ([1]; 2-4 times daily): 2 to 10 mg | Dose in humans for anti-anxiety, anti-convulsive, or sedative effects: equivalent dose to 10 mg diazepam ([1]; Table 1, values marked *): 10 mg

Cc1ncc2n1-c1ccc(Cl)cc1C(c1ccccc1F)=NC2 [Midazolam]
Effect at GABA-A receptor (GABA-A receptor): Agonist Short- acting | Dose in humans for anti-anxiety, anti-convulsive, or sedative effects: equivalent dose to 10 mg diazepam ([1]; Table 1, values marked *): 7.5 mg

O=C1CN=C(c2ccccc2Cl)c2cc(Br)ccc2N1 [Phenazepam]
Effect at GABA-A receptor (GABA-A receptor): Agonist | Dose in humans for anti-anxiety, anti-convulsive, or sedative effects: equivalent dose to 10 mg diazepam ([1]; Table 1, values marked *): 1 mg | Dose in humans for anti-anxiety, anti-convulsive, or sedative effects (dose range, typical or average dose) [1]: 0.5 mg

CCO/N=C(\C)c1ccc2c(c1)ncn2-c1cccc(-c2cccnc2)c1 [NS-2710]
Effect at GABA receptor (GABA-A receptor; Table 2, exemplary SS-PAMs): Partial agonist α2,3 subtype selective

O=C1CN=C(c2ccccc2)c2cc(Cl)ccc2N1CC(F)(F)F [Halazepam]
Effect at GABA-A receptor (GABA-A receptor): Agonist | Dose in humans for anti-anxiety, anti-convulsive, or sedative effects: equivalent dose to 10 mg diazepam ([1]; Table 1, values marked *): 20 to 40 mg

CN1C(=O)CN2CCc3ccccc3C2c2cc(Cl)ccc21 (stereo not drawn) [Clazolam]
Effect at GABA-A receptor (GABA-A receptor): Agonist

CC1CN2CC(=O)Nc3ccc(Cl)cc3C2(c2ccccc2)O1 (stereo not drawn) [Oxazolam]
Effect at GABA-A receptor (GABA-A receptor): Agonist

CC(C)(O)c1ccn2c(-c3ccc(F)c(-c4ccc(F)cc4C#N)c3)cnc2c1F [TP-003]
Effect at GABA receptor (GABA-A receptor; Table 2, exemplary SS-PAMs): Partial agonist α2,3,5 subtype selective binding and α3 selective efficacy

CCc1cc2c(s1)N(C)C(=O)CN=C2c1ccccc1Cl [Clotiazepam]
Effect at GABA-A receptor (GABA-A receptor): Full agonist | Dose in humans for anti-anxiety, anti-convulsive, or sedative effects: equivalent dose to 10 mg diazepam ([1]; Table 1, values marked *): 5 to 10 mg

CN1CCN(C(=O)O[C@H]2c3nccnc3C(=O)N2c2ccc(Cl)cn2)CC1 [Eszopiclone]
Effect at GABA receptor (GABA-A receptor; [2]): Agonist | Dose in humans for anti-anxiety, anti-convulsive, or sedative effects: equivalent dose to 10 mg diazepam ([1]; Table 4, values marked *): 3 mg

COCC1CN=C(c2ccccc2Cl)c2cc(Br)ccc2N1C (stereo not drawn) [Metaclazepam]
Effect at GABA-A receptor (GABA-A receptor): Agonist

CCCN(CCC)Cc1nc(-c2ncn3c2CN(C)C(=O)c2cc(F)ccc2-3)no1 [Ro48-6791]
Effect at GABA-A receptor (GABA-A receptor): Agonist

O=C1CN=C(c2ccccc2F)c2cc(Cl)ccc2N1CC(O)CO (stereo not drawn) [Proflazepam]
Effect at GABA-A receptor (GABA-A receptor): Agonist

CN(C)Cc1nnc2n1-c1ccc(Cl)cc1C(c1ccccc1)=NC2 [Adinazolam]
Effect at GABA-A receptor (GABA-A receptor): Full agonist

CC(C)(C)OC(=O)c1ncn2c1[C@@H]1CCCN1C(=O)c1c(Br)cccc1-2 [Bretazenil]
Effect at GABA-A receptor (GABA-A receptor): Partial Agonist High potency | Dose in humans for anti-anxiety, anti-convulsive, or sedative effects: equivalent dose to 10 mg diazepam ([1]; Table 1, values marked *): 0.5 mg

c1ccc(-c2cc(CCC3CCNCC3)c3ccccc3n2)cc1 [Pipequaline]
Effect at GABA receptor (GABA-A receptor; [2]): Partial agonist

CCS(=O)(=O)CCN1C(=O)CN=C(c2ccccc2F)c2cc(Cl)ccc21 [Elfazepam]
Effect at GABA-A receptor (GABA-A receptor): Agonist

CCC1C(C)=NN=C(c2ccc(OC)c(OC)c2)c2cc(OC)c(OC)cc21 (stereo not drawn) [Tofisopam]
Effect at GABA-A receptor (GABA-A receptor): Agonist | Dose in humans for anti-anxiety, anti-convulsive, or sedative effects, per day ([1]; Table 1, typical daily dose): Typical dose 50- 300 mg/day in divided doses

CCn1nc(C)c2c1C(c1ccccc1)=NCC(=O)N2 [Ripazepam]
Effect at GABA-A receptor (GABA-A receptor): Agonist

Cc1nn(C)c2c1N(c1ccccc1)C(=O)CC(=O)N2C [Zomebazam]
Effect at GABA-A receptor (GABA-A receptor): Agonist

CCc1cc2c(s1)-n1c(C)nnc1CN=C2c1ccccc1Cl [Etizolam]
Effect at GABA-A receptor (GABA-A receptor): Full agonist | Dose in humans for anti-anxiety, anti-convulsive, or sedative effects: equivalent dose to 10 mg diazepam ([1]; Table 1, values marked *): 0.5 to 1 mg

Clc1ccc2c(n1)C(c1ccccc1Cl)=NCc1nncn1-2 [Zapizolam]
Effect at GABA-A receptor (GABA-A receptor): Agonist

Fc1ccccc1C1=NCCN(CC(F)(F)F)c2ccc(Cl)cc21 [Fletazepam]
Effect at GABA-A receptor (GABA-A receptor): Agonist

CCOC(=O)c1ncc2[nH]c3ccc(OCc4ccccc4)cc3c2c1COC [ZK-93423]
Effect at GABA receptor (GABA-A receptor; [2]): Agonist

Cc1ncc2n1-c1ccc(Cl)cc1C(c1ccccc1Cl)=NC2 [Climazolam]
Effect at GABA-A receptor (GABA-A receptor): Agonist

CC(C)(C)C(O)/C=C/c1ccc2c(c1)OCO2 (stereo not drawn) [Stiripentol]
Dose in humans for anti-anxiety, anti-convulsive, or sedative effects ([1]; Table 4): 50-100 mg/kg/day (max daily dose 4 g)

O=C1CN=C(c2ccccc2)c2cc(Cl)ccc2N1CCOCC1CC1 [Iclazepam]
Effect at GABA-A receptor (GABA-A receptor): Agonist

Cn1ncnc1COc1nn2c(-c3ccccc3)nnc2cc1C1CCC1 [TP-13]
Effect at GABA receptor (GABA-A receptor; Table 2, exemplary SS-PAMs): Partial agonist at α2,3 subunits

COCc1c(C(=O)OC(C)C)ncc2[nH]c3cccc(Cc4ccc(Cl)cc4)c3c12 [Gedocarnil]
Effect at GABA receptor (GABA-A receptor; [2]): Agonist

Clc1ccc2c(c1)C1=NCCN1c1c(-c3noc(C4CC4)n3)ncn1-2 [U-90042]
Effect at GABA receptor (GABA-A receptor; Table 2, exemplary SS-PAMs): Agonist at α1,3,6 subunits

NNC(=O)CN1C(=O)CN=C(c2ccccc2)c2cc(Br)ccc21 [Gidazepam]
Effect at GABA-A receptor (GABA-A receptor): Agonist (Prodrug)

[O-][N+]1=C(c2ccccc2)c2cc(Cl)ccc2N=C(NCC2CC2)C1 [Cyprazepam]
Effect at GABA-A receptor (GABA-A receptor): Agonist

O=C(c1ccccn1)c1cnn2c(-c3ccncc3)ccnc12 [Ocinaplon]
Effect at GABA receptor (GABA-A receptor; [2]): Agonist

CC(C)CCC(=O)CC1c2ccccc2C(=O)N1c1ccc2ccc(Cl)nc2n1 (stereo not drawn) [Pagoclone]
Effect at GABA receptor (GABA-A receptor; Table 2, exemplary SS-PAMs): Partial agonist α2,3 selective

COc1ccc(-n2[nH]c3c4c(ncc3c2=O)CCCCC4)cc1 [CGS-20625]
Effect at GABA receptor (GABA-A receptor; [2]): Agonist

c1cc(-n2ccnc2)cc(-n2cnc3cc(-c4ccoc4)ccc32)c1 [NS-2664]
Effect at GABA receptor (GABA-A receptor; Table 2, exemplary SS-PAMs): Partial agonist α2,3 subtype selective

O=c1nc2ccccc2c2nc(-c3ccccc3)[nH]n12 [CGS-13767]
Effect at GABA receptor (GABA-A receptor; [2]): Agonist

O=C1N=C(N2CCCCC2)CN1c1ccc(Cl)cc1 [ELB-139]
Effect at GABA receptor (GABA-A receptor; Table 2, exemplary SS-PAMs): Partial agonist Highest affinity for α3 subtype but highest efficacy at the α1 and α2 subunits

CC(C)n1c(=O)c2c(-c3noc(C4CC4)n3)ncn2c2ccccc21 [Panadiplon]
Effect at GABA receptor (GABA-A receptor; [2]): Partial agonist

CCc1c(OC)nc2nc(-c3noc(C)n3)cn2c1C [Fasiplon]
Effect at GABA receptor (GABA-A receptor; [2]): Agonist

COCc1c(C(=O)OC(C)C)ncc2[nH]c3ccc(OCc4ccccc4)cc3c12 [Abecarnil]
Effect at GABA receptor (GABA-A receptor; [2]): Partial agonist

CN1C(=O)C(O)N=C(c2ccccc2F)c2cc(Cl)ccc21 (stereo not drawn) [Flutemazepam]
Effect at GABA-A receptor (GABA-A receptor): Agonist

O=c1c2cnc3ccccc3c2[nH]n1-c1ccccc1 [CGS-8216]
Effect at GABA receptor (GABA-A receptor; [2]): Agonist

CC(C)(O)c1ccc2c(c1)ncn2-c1cccc(-c2ccccc2C#N)c1 [NS-11394]
Effect at GABA receptor (GABA-A receptor; Table 2, exemplary SS-PAMs): Agonist α3,5 subtype selective

Cc1cc2c(N3CCCC3)nc(N3CCCC3)nc2n1C [U-89843A]
Effect at GABA receptor (GABA-A receptor; Table 2, exemplary SS-PAMs): Agonist at α1,3,6 subunits

CCC(=O)N1CCN(C(=O)O[C@H]2C3SCCSC3C(=O)N2c2ccc3ccc(Cl)nc3n2)CC1 (stereo partly drawn) [Suproclone]
Effect at GABA receptor (GABA-A receptor; [2]): Agonist

CN1CCN(C(=O)OC2C3=C(SCCS3)C(=O)N2c2ccc3ccc(Cl)nc3n2)CC1 (stereo not drawn) [Suriclone]
Effect at GABA receptor (GABA-A receptor; [2]): Agonist

CCOC(=O)C1N=C(c2ccccc2F)c2cc(Cl)ccc2N(C(=O)NC)C1=O (stereo not drawn) [Ethyl carfluzepate]
Effect at GABA-A receptor (GABA-A receptor): Agonist

CC#CCOC(=O)c1c(C)nc2sc3c(c2c1N)CCC(O)C3 (stereo not drawn) [SB-205,384]
Effect at GABA receptor (GABA-A receptor; Table 2, exemplary SS-PAMs): Agonist α3,5,6 subtype selective

O=C1Nc2ccc(Cl)nc2C(c2ccccc2Cl)=NC1O (stereo not drawn) [Lopirazepam]
Effect at GABA-A receptor (GABA-A receptor): Agonist Short- acting

Cc1nn(C)c2c1C(c1ccccc1F)=NCC(=O)N2C [Zolazepam]
Effect at GABA-A receptor (GABA-A receptor): Agonist

CCn1ncnc1COc1nn2c(-c3ccccc3F)nnc2cc1C(C)(C)C [TPA-023, 7-(1,1-dimethylethyl)-6-(2-ethyl-2H-1,2,4-triazol-3-ylmethoxy)-3-(2-fluorophenyl)-1,2,4-triazolo[4,3-b]pyridazine]
Effect at GABA receptor (GABA-A receptor; Table 2, exemplary SS-PAMs): Partial agonist at α2,3 subunits Antagonist at α1,5 subunits

CCCN(CCC)C(=O)Cc1c(-c2ccc(Cl)cc2)nc2ccc(Cl)cn12 [Alpidem]
Effect at GABA receptor (GABA-A receptor; Table 2, exemplary SS-PAMs): Agonist α3 subtype selective

CN1C(=O)CN=C(C2=CCCCC2)c2cc([N+](=O)[O-])ccc21 [Menitrazepam]
Effect at GABA-A receptor (GABA-A receptor): Agonist
